For four compounds, Activity and IC50 results are on record in ChEMBL document CHEMBL1150271, “Corymbones A and B, phloroglucinols with thyrotropin releasing hormone receptor 2 binding affinity from the flowers of Corymbia peltata” (J Nat Prod, 2008).

Active and inactive are the calls of the source. The rule behind the calls is not given here.

The target in assay [1] is T1, Thyrotropin-releasing hormone receptor 2 (Rattus norvegicus) (UniProt A6IZR3).
T1 sequence (whole entry): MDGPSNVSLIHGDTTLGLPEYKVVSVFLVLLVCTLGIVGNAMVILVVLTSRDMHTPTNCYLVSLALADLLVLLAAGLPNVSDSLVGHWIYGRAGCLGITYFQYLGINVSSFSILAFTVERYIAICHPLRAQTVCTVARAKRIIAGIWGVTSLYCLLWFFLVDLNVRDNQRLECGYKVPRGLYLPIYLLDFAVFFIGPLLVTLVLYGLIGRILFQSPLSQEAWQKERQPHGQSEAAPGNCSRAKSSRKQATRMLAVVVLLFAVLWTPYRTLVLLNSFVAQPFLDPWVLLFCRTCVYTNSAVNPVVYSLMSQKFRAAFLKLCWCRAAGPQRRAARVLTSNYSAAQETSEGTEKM
Put plainly: Displacement of [3H]3-methylhistidyl-TRH from rat recombinant TRH2 receptor expressed in […] cells up to 1 mM. The class given is cell-based. (In general: Loss of bound radioactivity is the signal in a displacement assay; it reports binding, not function.)

Assay [2] concerns the target T2, Thyrotropin-releasing hormone receptor 2 (Rattus norvegicus, UniProt A6IZR3).
T2 sequence (A6IZR3 whole entry): T1 sequence (whole entry)
Put plainly: Displacement of [3H]3-methylhistidyl-TRH from rat recombinant TRH2 receptor expressed in […] cells. The class given is cell-based.

In the case of `Cc1c(O)cc(O)c(C(=O)CCc2ccccc2)c1O`, the outcome in assay [1] was inactive.

The IC50 is the concentration needed to halve the response being measured. Turning to `Cc1c(O)c(C(=O)CCc2ccccc2)c(O)c(C(CCc2ccccc2)C2=C(O)C(C)(C)C(=O)C(C)(C)C2=O)c1O` (centres undefined) [CORYMBONE A], the IC50 in assay [2] is 23 µM.

In the case of `Cc1c(O)c(C(=O)CCc2ccccc2)c(O)c(C(CC(C)C)C2=C(O)C(C)(C)C(=O)C(C)(C)C2=O)c1O` (centres undefined) [CORYMBONE B], the IC50 in assay [2] amounted to 19 µM.

In the case of `NC(=O)[C@@H]1CCCN1C(=O)[C@H](Cc1cnc[nH]1)NC(=O)[C@@H]1CCC(=O)N1` [PROTIRELIN], the IC50 in assay [2] came to 23 µM.
